Results on 2 compounds are retold here after patent US20250143307A1 (priority 2021, published 2025).

Data set [1] in a line: Surface charge determination by fluorescein test. The data set is classed as physicochemical. To be noted: activated glass coverslips, spin-coated, baked at 110° C. for 60 minutes.
Method: Surface cationic density (N^+/cm^2) was calculated using UV/Vis absorbance of fluorescein. Fluorescein dye molecules (negatively charged) strongly bind to quaternary amino groups (positively charged) belonging to the polymeric chain. The stoichiometry of fluorescein binding is estimated at one dye molecule per four quaternary ammonium moieties. Treated plates were placed in a 1% fluorescein aqueous solution for five minutes, and then rinsed and sonicated in distilled water for several minutes in order to remove physisorbed fluorescein. Plates were rinsed with distilled water and immersed in 3 mL of CTAB 0.5% (aqueous solution of cetyltrimehylammonium bromide) along with PBS (Phosphate-Buffered Saline) (90% CTAB/10% PBS) and sonicated for 10 minutes. The optical density of chemisorbed fluorescein was measured at 501 nm wavelength.
Data set [2] is described as follows: Manual friction / abrasion resistance of electrostatically sprayed coatings on glass slides. The data set is classed as physicochemical. As to conditions: glass slide. The protocol:
A glass slide was treated according to the following protocol: • 1) The surface was prepared by cleaning with isopropanol, and allowed to dry; • 2) The sprayer was held about 1 m from the target surface. • 3) The titanium anatase phase in aqueous solution (a mixture of peroxotitanic acid and peroxo-modified anatase sol 0.8%) was sprayed onto the surface using an electrostatic sprayer to form a coating on the target surface. • 4) The surface was allowed to dry for 5 to 10 minutes. • 5) The electrostatic sprayer was rinsed with distilled water. • 6) The biocidal polymer coating solution was added to the sprayer tank. • 7) The biocidal polymer coating solution was sprayed onto the surface at a 1 m distance away from the surface. • 8) The surface was examined to ensure it was not over-saturated with coating solution. • 9) The surface was allowed to dry for several hours.
A second glass slide was treated according to the protocol described above, except the surface was coated with the biocidal polymer solution first, followed by the titanium anatase phase.
In both methods, it was observed that the coating resisted repeated manual friction (over 20 cycles) using both wetted and dry paper towel, cotton-based cloth, and polyester/polypropylene wipes.
Treated and control glass slides were transferred to a 1% fluorescein solution for 10 minutes. […]

Consider `CCCCCCCCCCCCCCCCCC[N+](C)(C)CC(=O)c1ccc(O)c(O)c1`, for which, in data set [1], the “Calculated surface cationic density” value is listed as 4×10^14 cations/cm^2.

`CCCCCCCCCCCCCCCCCC[N+](C)(C)CCC[Si](OC)(OC)OC.[Cl-]` [octadecyldimethyl(3-trimethoxysilylpropyl)ammonium chloride]: in data set [2] (sprayed with titanium anatase 0.8%, wetted and dry paper towel, cotton cloth, polyester/polypropylene wipes), the “resistance of coating to repeated manual friction” value was “did not resist manual friction”. For the same compound, in data set [2] (titanium anatase sprayed first, then the coating solution), the “abrasion resistance by fluorescein test after manual friction” value was “did not resist minor abrasion”.
